Assay: Gramicidin D conductance change in lipid bilayer across silicon nitride aperture
Type: biochemical
Conditions: 5 to 20 μl of 2 mg/ml gD in ethanol to each bath; within minutes; capacitance remained constant; ethanol alone no effect
Excerpt: Lipid bilayers were formed by the method of Montal and Mueller (1972). In practicing the Langmuir-Blodgett technique, one raises two lipid monolayers across an aperture, allowing the lipids to align their hydrophobic tail portions across the aperture so as to form a lipid bilayer. Because of the hydrophobic nature of the lipid tails, in order to form stable bilayers the surface of a BSP must also be hydrophobic. If the substrate is hydrophobic, the lipids can smoothly transition from coating the substrate to spanning the aperture. To reverse the wetting properties of the naturally hydrophilic silicon nitride, the silicon nitride was coated with an alkylsilane (octyltrichlorosilane). Application of this coating was quite simple and very effective. It was not found to be possible to form a bilayer with untreated devices. Use of longer carbon chain silanes or alternative materials to make the surface even more hydrophobic would further increase bilayer stability.
For smaller apertures, it was more difficult to observe the capacitance change over the background. In this case, membrane-bound proteins that affect the electrical properties of the bilayer, such as carriers and ion channels, offered the best proof of the formation of a bilayer. The ion channel peptide Gramicidin D (gD), was chosen for ease of use and large conductance change. […]

For Gramicidin D [gD], the “conductance of the bilayer” value was “dramatically increased”.

Source: patent US7001608B2, “Artificial synapse chip interface for electronic prosthetic retina” (The Board of Trustees of the Lealand Stanford Junior …, priority 2001, dated 2006)
